# Laboratory results: patent publication US20120100135A1, “GENETIC POLYMORPHISMS ASSOCIATED WITH CLINICAL OUTCOMES OF TOPOISOMERASE INHIBITOR THERAPY FOR CANCER” (University of Southern California, priority 2009, published 2012)
# Test system: mCRC patients
# Assay: Phase III EPIC trial subgroup (US sites, 186 genotyped patients): IR/CB (arm A) vs IR alone (arm B), second line after failure of FOLFOX
# Format: in vivo, human
# Protocol: This study was to test functional germline polymorphisms involved in the EGFR—(EGF, EGFR), angiogenesis—(VEGF, IL-8, CXCR-2)—and drug-metabolism related genes (UGT1A1, MTHFR) for their potential role as molecular predictors for clinical outcome in patients treated with CB/IR vs. IR alone.
# Material and Methods: DNA was extracted from all available formalin-fixed paraffin-embedded tumor samples from the phase III EPIC trial (US sites only). Genotyping was performed using PCR-RFLP assays and 5′-end [g-33P] ATP′ labeled PCR-protocols.
# Results: 186 patients were treated either with IR/CB (arm A, 84 patients) or IR (arm B, 102 patients) only. […] It was found an EGFR-CA-repeat in intron I in arm A was associated with PFS (p=0.031, log-rank test) (Table 2). In arm A, a significant association with […] (RR) (p=0.0103, Fisher's exact test) for MTHFR 1298 was found (Table 3). […] Furthermore, MTHFR 677 and MTHFR 1298 was associated with OS (adjusted p=0.028 and 0.026, respectively, Cox-proportional hazards models), independent from K-ras mutation status, race and number of disease sites.
smiles,measurement,setting,value
"CCc1c2c(nc3ccc(OC(=O)N4CCC(N5CCCCC5)CC4)cc13)-c1cc3c(c(=O)n1C2)COC(=O)[C@]3(O)CC [IR, Irinotecan]",Median PFS,95% CI,2.7 months
same,median overall survival (OS),95% CI,12.3 months
same,patients showing CR or PR,"arm A n=84, arm B n=102",6%
same,patients with SD or PD,"arm A n=84, arm B n=102",94%
